Test results reported in patent publication US20240391923A1, “METHIONINE ADENOSYLTRANSFERASE 2A INHIBITOR FOR TREATING MTAP DELETION-TYPE CANCER” (SUZHOU GENHOUSE BIO CO., LTD., priority 2022, published 2024).
Like-named read-outs stand apart in the source and are kept apart here.

Key:
[1] = test system: SDMA in HCT116-MTAP-knockout cell line; assay: Cell symmetric dimethylarginine (SDMA) test, In-cell Western, HCT116-MTAP-knockout; format: cell-based; conditions: Homo sapiens, 96 h
[2] = test system: SDMA in human colon cancer cell line HCT116; assay: Cell symmetric dimethylarginine (SDMA) test, In-cell Western, HCT116 (MTAP wild-type); format: cell-based; conditions: Homo sapiens, HCT-116, 96 h
Text: MAT2A catalyzes the reaction of L-methionine and ATP to generate SAM, inorganic phosphonic acid, and inorganic diphosphonic acid. SAM is an important methyl donor, and is a substrate of arginine methyltransferase 5 (PRMT5). PRMT5 catalyzes SDMA modification of multiple proteins within a cell. The intracellular SDMA modification level was detected by ICW (In-cell Western), and the inhibition of the test compound on the enzymatic activity of intracellular MAT2A was indirectly reflected.
In the present application, the human colon cancer cell line HCT116 and the corresponding HCT116-MTAP-knockout cell line were seeded into a 96-well cell culture plate at an appropriate cell density. After 24 h, the cells were treated using the test compounds diluted 1:4 fold at the highest concentration of 6 μM for 6 gradients, and a DMSO treatment group was set up separately. The cells were cultured in a 37° C./5% CO2 incubator for 4 days. To test the inhibitory activity of the test compounds against tumor cell SDMA, the medium was discarded, and the plate was washed 3 times with PBST. 4% paraformaldehyde was then used at room temperature for fixation for 20 min. The fixation solution was discarded, the plate was washed 3 times with PBST, and a special blocking solution was added to each well for blocking at room temperature for 2 h. The blocking solution was discarded. After the plate was washed 3 times with PBST, the plate was incubated with SDMA antibody at 4° C. overnight. The next day, the plate was washed 3 times with PBST. The secondary antibody and DRAQ5 were diluted to an appropriate concentration with the blocking solution, and incubated at room temperature for 2 h; the plate was washed 3 times with PBST, and the fluorescence signals at 700 nm and 800 nm were detected using a Li—COR Odyssey two-color near-infrared laser imager.
The data was then processed. After the corresponding background value was subtracted from each well, statistical analysis was performed on the 800 nm/700 nm ratio for each well, a sigmoidal dose-inhibition curve was plotted using a non-linear regression model, and IC50 values were fitted and calculated. Inhibition Rate (%)=(1−SDMA dose/SDMA DMSO control)*100. SDMA dose is the value of the drug treatment group, and SDMA DMSO control is the value of the DMSO control group.

[3] = test system: HCT116-MTAP-knockout (−/−) cell strain; assay: Tumor cell proliferation inhibition assay (CellTiter-Glo), HCT116-MTAP-knockout (-/-); format: cell-based; conditions: Homo sapiens, 120 h, 5-day treatment
Method: (§1) After the HCT116-MTAP-knockout (−/−) cell strain, the HCT116-MTAP wild-type(+/+)-cell strain, the DOHH-2 cell strain, or the Hut-78 cell strain was treated with the test compound for 5 days, the ATP level was measured using a CellTiter-Glo kit of Promega to evaluate the inhibition of the test compound against the growth of the tumor cell strain.
(§2) In the present application, the HCT116-MTAP-knockout (−/−) cell strain, the HCT116-MTAP wild-type (+/+)-cell strain, the DOHH-2 cell strain, or the Hut-78 cell strain was seeded into a 96-well cell culture plate at an appropriate cell density. After 24 h, the cells were treated using the test compounds diluted 1:3 fold at the highest concentration of 10 μM for 10 gradients, and a DMSO treatment group was set up separately. The cells were cultured in a 37° C./5% CO2 incubator for 5 days.

[4] = test system: HCT116-MTAP wild-type (+/+)-cell strain; assay: Tumor cell proliferation inhibition assay (CellTiter-Glo), HCT116-MTAP wild-type (+/+); format: cell-based; conditions: Homo sapiens, 120 h, 5-day treatment
Method: as §1, §2

[5] = molecular target: MAT2A recombinant protein (Homo sapiens, UniProt P31153); assay: MAT2A inhibitory activity (malachite green colorimetric enzyme assay); format: biochemical
Text: MAT2A catalyzes the reaction of L-methionine and ATP to generate S-adenosylmethionine (SAM), inorganic phosphonic acid, and inorganic diphosphonic acid. Malachite green reacts with inorganic phosphonic acid to generate a green product, and the enzyme activity of MAT2A can be indirectly reflected by detecting the content of the inorganic phosphonic acid in a sample.
The test compounds were formulated using DMSO and diluted 1:3 diluted through 10 concentration points to give a final starting concentration in the reaction system of 1000 nM. The test compounds at different concentrations described above were transferred to a 384-well plate. Experimental buffer (50 mM HEPES pH 7.5, 50 mM KCl, 10 mM MgCl2, 10 mM DTT) was prepared. 2×MAT2A recombinant protein was prepared using the buffer and added to a 384-well plate. A mixed solution of 2×L-methionine and ATP was prepared using the buffer, and added to a 384-well plate. The enzymatic reaction was started, and the reaction was carried out at room temperature for 60 min. 20 μL of a colorimetric detection reagent was added to the above system, and incubated at room temperature for 15 min. The absorbance at 630 nm was measured. The inhibition rate of the compound on the enzyme activity was calculated, and the inhibition rate value and the logarithm value of the compound concentration were fitted using non-linear regression (dose response-variable slope) to give the IC50 value of the test compound.

[6] = IC50 score class, read-out: Cell 96 h SDMA Inhibition (HCT116-MTAP−/−) (score)
[7] = read-out: Cell 96 h SDMA Inhibition (HCT116-MTAP−/−)
[8] = IC50 score class, read-out: Cell 96 h SDMA Inhibition (HCT116-MTAP+/+) (score)
[9] = read-out: Cell 96 h SDMA inhibition (HCT116-MTAP+/+)
[10] = HCT116-MTAP-knockout (−/−) cells, IC50 score, read-out: Tumor cell 5-day relative growth inhibition (HCT116-MTAP−/−) (nM), score
[11] = HCT116-MTAP-knockout (−/−) cells, IC50 value, read-out: Tumor cell 5-day relative growth inhibition (HCT116-MTAP−/−)
[12] = HCT116-MTAP wild-type (+/+) cells, IC50 score, read-out: Tumor cell 5-day relative growth inhibition (HCT116-MTAP+/+) (nM), score
[13] = HCT116-MTAP wild-type (+/+) cells, IC50 value, read-out: Tumor cell 5-day relative growth inhibition (HCT116-MTAP+/+)
[14] = IC50 score class, read-out: MAT2A Inhibition (score)
[15] = HCT116-MTAP−/− cells, IC50 class score, read-out: Tumor cell 5-day relative growth inhibition (HCT116-MTAP−/−) (nM), score
[16] = HCT116-MTAP−/− cells, read-out: Tumor cell 5-day relative growth inhibition (HCT116-MTAP−/−)
[17] = HCT116-MTAP+/+ cells, IC50 class score, read-out: Tumor cell 5-day relative growth inhibition (HCT116-MTAP+/+) (nM), score
[18] = HCT116-MTAP+/+ cells, read-out: Tumor cell 5-day relative growth inhibition (HCT116-MTAP+/+)

MAT2A recombinant protein, sequence (P31153 whole entry): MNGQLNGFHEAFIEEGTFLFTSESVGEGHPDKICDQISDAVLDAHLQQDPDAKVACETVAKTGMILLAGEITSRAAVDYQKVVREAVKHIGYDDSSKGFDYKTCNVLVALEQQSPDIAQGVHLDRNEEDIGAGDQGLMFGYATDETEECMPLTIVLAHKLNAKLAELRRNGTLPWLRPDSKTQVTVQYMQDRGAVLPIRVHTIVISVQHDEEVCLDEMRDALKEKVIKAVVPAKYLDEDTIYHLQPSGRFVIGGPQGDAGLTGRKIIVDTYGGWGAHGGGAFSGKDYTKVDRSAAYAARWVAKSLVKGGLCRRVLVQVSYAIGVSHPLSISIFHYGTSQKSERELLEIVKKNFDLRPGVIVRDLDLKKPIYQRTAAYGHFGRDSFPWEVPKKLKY

Row | IC50 [1, 6] [µM] | IC50 [1, 7] [µM] | IC50 [2, 8] [µM] | IC50 [2, 9] [µM] | IC50 [3, 10] [nM] | IC50 [3, 11] [nM] | IC50 [4, 12] [nM] | IC50 [4, 13] [nM] | IC50 [5, 14] [µM] | IC50 ([5]; read-out: MAT2A Inhibition) [µM] | IC50 [3, 15] [nM] | IC50 [3, 16] [nM] | IC50 [4, 17] [nM] | IC50 [4, 18] [nM] | SMILES
1 | < 0.2 | 0.02 | > 3 | > 10 | < 500 | 223 | ≥ 2000 | > 10000 |  |  |  |  |  |  | Cn1cc2c(n1)c(=O)n(-c1cccnc1C(F)(F)F)c1cc(Cl)c(F)cc21 (single isomer, unassigned) [Compound B389]
2 | 0.2 to 1 | 0.213 | > 3 | > 3 | < 500 | 41.4 | ≥ 2000 | > 2000 | < 0.1 | 0.0451 |  |  |  |  | Cn1cc2c(n1)c(=O)n(-c1cccnc1C(F)(F)F)c1cc(Cl)ccc21 [Compound B68]
3 | 0.2 to 1 | 0.218 | > 3 | > 3 | < 500 | 81.7 | ≥ 2000 | 23300 |  |  |  |  |  |  | Cn1cc2c(n1)c(=O)n(-c1cccnc1C(F)(F)F)c1nc(C(F)(F)F)ccc21 [Compound B80]
4 | < 0.2 | 0.011 | > 3 | > 10 | < 500 | 50 | < 500 | 477 | < 0.1 | 0.0147 |  |  |  |  | O=c1c2n[nH]cc2c2ccc(C(F)(F)F)nc2n1-c1cccc2[nH]ncc12 [Compound B239]
5 | 0.2 to 1 | 0.11 | > 3 | 3.97 | < 500 | 299 | 500 to 2000 | 939 | < 0.1 | 0.0281 |  |  |  |  | O=c1c2nn(C3CC3)cc2c2ccc(C(F)(F)F)nc2n1-c1cccc2[nH]ncc12 [Compound B250]
6 | 0.2 to 1 | 0.202 |  |  | < 500 | 378 | 500 to 2000 | 1230 | < 0.1 | 0.0193 |  |  |  |  | Cc1c2c(nn1C(F)F)c(=O)n(-c1cccnc1)c1nc(C(F)(F)F)ccc21 [Compound B252]
7 | 0.2 to 1 | 0.222 | > 3 | 3.44 | 500 to 2000 | 1160 | ≥ 2000 | 12800 | < 0.1 | 0.0197 |  |  |  |  | O=c1c2nn(C(F)F)cc2c2ccc(C(F)(F)F)nc2n1-c1cccnc1 [Compound B255]
8 | 0.2 to 1 | 0.517 |  |  | 500 to 2000 | 1400 | ≥ 2000 | 7600 | < 0.1 | 0.083 |  |  |  |  | Cn1cc2c(n1)c(=O)n(-c1cccc3[nH]ncc13)c1cc(Cl)cnc21 [Compound B273]
9 | < 0.2 | 0.061 |  |  | < 500 | 327 | 500 to 2000 | 875 | < 0.1 | 0.083 |  |  |  |  | Cc1n[nH]c2cccc(-n3c(=O)c4nn(C)cc4c4ccc(Cl)cc43)c12 [Compound B277]
10 |  |  | > 3 | > 10 | 500 to 2000 | 579 | ≥ 2000 | > 10000 |  |  |  |  |  |  | O=c1c2nn(C(F)F)cc2c2cc(F)c(Cl)cc2n1-c1cccnc1C1CC1 [Compound B337]
11 |  |  |  |  |  |  |  |  |  |  | ≥ 2000 | > 10000 | ≥ 2000 | > 10000 | CCOc1ccc2c3cn(C)nc3c(=O)n(-c3ccc(OC(F)F)cc3)c2n1 [Compound B400]
12 |  |  |  |  |  |  |  |  |  |  | ≥ 2000 | > 10000 | ≥ 2000 | > 10000 | Cn1cnc2c(=O)n(-c3ccc4ncccc4c3)c3nc(C(F)(F)F)ccc3c21 [Compound B401]
13 |  |  |  |  |  |  |  |  | > 1 | > 10 | ≥ 2000 | > 10000 | ≥ 2000 | > 10000 | Cn1cnc2c(=O)n(-c3ccc4ccccc4n3)c3nc(C(F)(F)F)ccc3c21 [Compound B402]
14 |  |  |  |  |  |  |  |  | > 1 | > 10 | ≥ 2000 | > 10000 | ≥ 2000 | > 10000 | Cn1cnc2c(=O)n(-c3cnc4ccccc4c3)c3nc(C(F)(F)F)ccc3c21 [Compound B403]
15 |  |  |  |  |  |  |  |  | > 1 | > 10 | ≥ 2000 | > 10000 | ≥ 2000 | > 10000 | Cn1cnc2c(=O)n(-c3ccc4ccccc4c3)c3nc(C(F)(F)F)ccc3c21 [Compound B404]
16 |  |  |  |  |  |  |  |  | > 1 | > 10 | ≥ 2000 | > 10000 | ≥ 2000 | > 10000 | Cn1cnc2c(=O)n(-c3ccc4ncccc4n3)c3nc(C(F)(F)F)ccc3c21 [Compound B405]
17 |  |  |  |  |  |  |  |  |  |  | ≥ 2000 | > 10000 | ≥ 2000 | > 10000 | Cn1cnc2c(=O)n(-c3cncc4ccccc34)c3nc(C(F)(F)F)ccc3c21 [Compound B406]
18 |  |  |  |  |  |  |  |  |  |  | ≥ 2000 | > 10000 | ≥ 2000 | > 10000 | Cn1cnc2c(=O)n(-c3cccc4ccncc34)c3nc(C(F)(F)F)ccc3c21 [Compound B407]
19 |  |  |  |  |  |  |  |  |  |  | ≥ 2000 | > 10000 | ≥ 2000 | > 10000 | Cn1cnc2c(=O)n(-c3cccc4ncccc34)c3nc(C(F)(F)F)ccc3c21 [Compound B408]
20 |  |  |  |  |  |  |  |  |  |  | 500 to 2000 | 1530 | ≥ 2000 | 4040 | O=c1c2n[nH]cc2c2ccc(C(F)(F)F)nc2n1-c1ccccc1Cl [Compound B409]
21 |  |  |  |  |  |  |  |  | > 1 | > 10 | ≥ 2000 | > 10000 | ≥ 2000 | > 10000 | Cn1ncc2c3ccc(C(F)(F)F)nc3n(-c3ccccc3Cl)c(=O)c21 [Compound B410]
